This passage reports Activity results from ChEMBL document CHEMBL1208672, “Novel 8-arylated purines as inhibitors of glycogen synthase kinase” (Eur J Med Chem, 2010).

Test [1] has as its target T1, Tyrosine-protein kinase receptor TYRO3 (Homo sapiens) (UniProt Q06418).
T1 sequence (whole entry): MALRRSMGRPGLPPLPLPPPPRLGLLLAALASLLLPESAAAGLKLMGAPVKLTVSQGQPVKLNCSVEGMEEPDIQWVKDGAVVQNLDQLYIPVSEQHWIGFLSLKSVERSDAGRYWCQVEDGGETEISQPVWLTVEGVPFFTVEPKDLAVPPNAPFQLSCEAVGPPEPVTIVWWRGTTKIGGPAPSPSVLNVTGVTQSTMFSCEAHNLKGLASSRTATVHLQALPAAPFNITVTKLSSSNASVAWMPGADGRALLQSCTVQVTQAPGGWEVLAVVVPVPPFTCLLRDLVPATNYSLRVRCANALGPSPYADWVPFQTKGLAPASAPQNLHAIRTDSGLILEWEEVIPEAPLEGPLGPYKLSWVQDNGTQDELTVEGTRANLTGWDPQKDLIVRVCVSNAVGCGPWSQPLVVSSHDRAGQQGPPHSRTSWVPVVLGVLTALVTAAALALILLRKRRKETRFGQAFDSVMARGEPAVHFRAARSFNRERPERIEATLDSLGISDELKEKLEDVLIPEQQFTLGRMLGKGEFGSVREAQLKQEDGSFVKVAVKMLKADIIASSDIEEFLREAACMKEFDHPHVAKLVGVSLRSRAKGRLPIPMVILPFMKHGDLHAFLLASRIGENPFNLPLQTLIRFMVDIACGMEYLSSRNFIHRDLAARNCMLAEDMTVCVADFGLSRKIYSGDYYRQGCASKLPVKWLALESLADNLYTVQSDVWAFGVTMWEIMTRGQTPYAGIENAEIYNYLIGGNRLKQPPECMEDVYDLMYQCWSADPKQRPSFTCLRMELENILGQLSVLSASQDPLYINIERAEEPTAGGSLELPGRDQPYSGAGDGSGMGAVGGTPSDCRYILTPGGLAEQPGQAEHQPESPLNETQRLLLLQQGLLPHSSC
Briefly: Inhibition of TYRO3/SKY assessed as residual activity at 10 uM relative to control.

Test [2] has as its target Casein kinase II subunit alpha (Homo sapiens) (UniProt P68400). Briefly: Inhibition of CK2alpha assessed as residual activity at 10 uM relative to control.
Test [3] addresses Glycogen synthase kinase-3 alpha (Homo sapiens) (UniProt P49840). In words: Inhibition of human GSK3alpha assessed as residual activity at 1 uM relative to control.
Test [4] has as its target MAP kinase-activated protein kinase 2 (Homo sapiens) (UniProt P49137). Briefly: Inhibition of MAPKAPK2 assessed as residual activity at 10 uM relative to control.
The target of test [5] is T2, Cyclin-dependent kinase 5/CDK5 activator 1 (Homo sapiens) (UniProt Q00535+Q15078). In words: Inhibition of CDK5/p25 assessed as residual activity at 1 uM relative to control. Type of test: protein-complex assay.
In test [6] the target is Epidermal growth factor receptor (Homo sapiens) (UniProt P00533). In words: Inhibition of EGFR assessed as residual activity at 10 uM relative to control.
The target in test [7] is Mitogen-activated protein kinase 8 (Homo sapiens) (UniProt P45983). In words: Inhibition of JNK1 assessed as residual activity at 10 uM relative to control.
In test [8] the target is Mitogen-activated protein kinase 3 (Homo sapiens) (UniProt P27361). Briefly: Inhibition of ERK1 at 10 uM relative to control. Details: scale not given: the % may be the effect or the level left.
The target in test [9] is Glycogen synthase kinase-3 beta (Homo sapiens, UniProt P49841). Briefly: Inhibition of human GSK3-beta assessed as residual activity at 10 uM relative to control.
Test [10] deals with Casein kinase I isoform alpha (Homo sapiens) (UniProt P48729). In words: Inhibition of CK1alpha1 assessed as residual activity at 10 uM relative to control.
The target in test [11] is Insulin-like growth factor 1 receptor (Homo sapiens) (UniProt P08069). In words: Inhibition of IGF1R assessed as residual activity at 10 uM relative to control.
Test [12] has as its target T2, Cyclin-dependent kinase 5/CDK5 activator 1 (Homo sapiens). Briefly: Inhibition of CDK5/p25 assessed as residual activity at 10 uM relative to control. Type of test: protein-complex assay.

T2 sequence (Q00535 whole entry): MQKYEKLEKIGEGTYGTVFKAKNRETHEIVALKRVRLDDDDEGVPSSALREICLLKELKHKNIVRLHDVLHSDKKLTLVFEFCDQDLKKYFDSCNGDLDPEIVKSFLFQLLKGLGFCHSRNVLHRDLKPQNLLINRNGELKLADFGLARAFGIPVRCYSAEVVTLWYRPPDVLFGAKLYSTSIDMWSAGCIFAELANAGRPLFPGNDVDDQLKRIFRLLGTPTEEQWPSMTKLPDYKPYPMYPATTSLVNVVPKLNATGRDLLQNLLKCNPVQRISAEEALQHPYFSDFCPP
T2 sequence (Q15078 99-307 partner limits assumed): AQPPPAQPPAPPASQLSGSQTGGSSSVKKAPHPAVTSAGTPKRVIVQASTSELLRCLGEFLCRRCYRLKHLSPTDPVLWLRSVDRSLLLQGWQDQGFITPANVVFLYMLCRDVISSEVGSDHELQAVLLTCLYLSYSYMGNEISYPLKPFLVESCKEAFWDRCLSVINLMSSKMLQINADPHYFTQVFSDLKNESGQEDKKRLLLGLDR
Insulin-like growth factor 1 receptor (Homo sapiens), sequence (P08069 31-736 limits assumed): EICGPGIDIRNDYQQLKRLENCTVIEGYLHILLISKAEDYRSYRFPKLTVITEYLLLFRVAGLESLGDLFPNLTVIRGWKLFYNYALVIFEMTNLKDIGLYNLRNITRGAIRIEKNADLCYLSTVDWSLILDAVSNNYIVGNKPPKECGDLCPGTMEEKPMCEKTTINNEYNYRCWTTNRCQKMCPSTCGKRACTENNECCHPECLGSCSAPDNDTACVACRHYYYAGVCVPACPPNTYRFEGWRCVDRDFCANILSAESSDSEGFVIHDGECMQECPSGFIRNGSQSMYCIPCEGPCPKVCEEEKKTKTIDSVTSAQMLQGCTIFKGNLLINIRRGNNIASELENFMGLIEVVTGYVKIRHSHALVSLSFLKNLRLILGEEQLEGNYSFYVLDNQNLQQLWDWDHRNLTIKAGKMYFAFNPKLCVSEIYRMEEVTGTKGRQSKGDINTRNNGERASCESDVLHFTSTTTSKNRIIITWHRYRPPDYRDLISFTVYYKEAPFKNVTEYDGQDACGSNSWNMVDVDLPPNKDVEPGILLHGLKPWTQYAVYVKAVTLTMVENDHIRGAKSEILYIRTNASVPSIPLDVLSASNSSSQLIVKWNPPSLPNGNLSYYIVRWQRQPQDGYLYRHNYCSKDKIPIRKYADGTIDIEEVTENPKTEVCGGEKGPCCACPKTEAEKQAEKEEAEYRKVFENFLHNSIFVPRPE
Insulin-like growth factor 1 receptor (Homo sapiens), sequence (P08069 741-1367 limits assumed): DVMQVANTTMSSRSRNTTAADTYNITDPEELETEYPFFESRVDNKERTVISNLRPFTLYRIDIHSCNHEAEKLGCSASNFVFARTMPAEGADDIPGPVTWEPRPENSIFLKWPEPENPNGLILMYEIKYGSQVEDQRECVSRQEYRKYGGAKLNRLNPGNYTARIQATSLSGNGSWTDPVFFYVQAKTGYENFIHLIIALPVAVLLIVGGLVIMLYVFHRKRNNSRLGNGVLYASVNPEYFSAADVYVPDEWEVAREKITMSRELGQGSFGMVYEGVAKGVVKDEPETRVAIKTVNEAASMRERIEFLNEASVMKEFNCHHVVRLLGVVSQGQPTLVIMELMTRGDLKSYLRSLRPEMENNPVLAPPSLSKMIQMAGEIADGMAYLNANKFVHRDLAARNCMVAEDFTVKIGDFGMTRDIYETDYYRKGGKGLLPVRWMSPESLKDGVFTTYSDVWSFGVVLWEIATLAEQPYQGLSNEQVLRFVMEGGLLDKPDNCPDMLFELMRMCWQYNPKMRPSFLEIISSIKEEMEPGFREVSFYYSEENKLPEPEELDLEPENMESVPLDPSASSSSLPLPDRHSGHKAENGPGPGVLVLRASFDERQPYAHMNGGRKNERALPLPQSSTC
Glycogen synthase kinase-3 alpha (Homo sapiens), sequence (P49840 2-483 limits assumed): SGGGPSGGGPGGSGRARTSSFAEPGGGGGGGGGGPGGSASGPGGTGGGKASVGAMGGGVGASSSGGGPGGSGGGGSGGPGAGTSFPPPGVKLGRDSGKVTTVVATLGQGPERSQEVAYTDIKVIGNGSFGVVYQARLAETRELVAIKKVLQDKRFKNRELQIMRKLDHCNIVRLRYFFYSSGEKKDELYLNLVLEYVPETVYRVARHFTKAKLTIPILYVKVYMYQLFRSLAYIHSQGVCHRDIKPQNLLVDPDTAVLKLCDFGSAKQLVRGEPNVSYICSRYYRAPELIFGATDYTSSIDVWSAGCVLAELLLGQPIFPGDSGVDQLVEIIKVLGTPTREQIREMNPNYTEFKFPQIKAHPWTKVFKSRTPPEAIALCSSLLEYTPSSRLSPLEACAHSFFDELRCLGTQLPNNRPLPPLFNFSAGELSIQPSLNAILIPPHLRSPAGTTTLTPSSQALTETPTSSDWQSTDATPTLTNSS
Mitogen-activated protein kinase 3 (Homo sapiens), sequence (P27361 whole entry): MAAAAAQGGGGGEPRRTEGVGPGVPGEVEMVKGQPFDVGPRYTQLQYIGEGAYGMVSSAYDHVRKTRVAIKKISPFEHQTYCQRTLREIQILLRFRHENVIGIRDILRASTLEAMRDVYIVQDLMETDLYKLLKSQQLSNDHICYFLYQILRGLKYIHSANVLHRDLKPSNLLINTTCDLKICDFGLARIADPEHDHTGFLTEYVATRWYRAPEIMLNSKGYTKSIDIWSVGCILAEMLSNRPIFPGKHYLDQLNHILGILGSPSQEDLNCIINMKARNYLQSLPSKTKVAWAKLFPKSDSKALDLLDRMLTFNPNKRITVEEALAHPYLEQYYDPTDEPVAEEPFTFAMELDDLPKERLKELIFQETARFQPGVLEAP
Glycogen synthase kinase-3 beta, sequence (P49841 whole entry, looked up, canonical isoform): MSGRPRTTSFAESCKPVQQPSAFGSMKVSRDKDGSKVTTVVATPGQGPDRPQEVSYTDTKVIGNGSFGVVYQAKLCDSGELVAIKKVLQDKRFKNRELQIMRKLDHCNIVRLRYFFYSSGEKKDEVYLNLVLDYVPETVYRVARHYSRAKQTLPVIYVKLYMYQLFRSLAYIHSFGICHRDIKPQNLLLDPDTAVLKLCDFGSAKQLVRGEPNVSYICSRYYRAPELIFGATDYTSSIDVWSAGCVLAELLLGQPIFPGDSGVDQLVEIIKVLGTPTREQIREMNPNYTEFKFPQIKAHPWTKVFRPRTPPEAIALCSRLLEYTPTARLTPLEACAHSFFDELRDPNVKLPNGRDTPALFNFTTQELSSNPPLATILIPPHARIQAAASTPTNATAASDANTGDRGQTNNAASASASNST
MAP kinase-activated protein kinase 2 (Homo sapiens), sequence (P49137 whole entry, looked up): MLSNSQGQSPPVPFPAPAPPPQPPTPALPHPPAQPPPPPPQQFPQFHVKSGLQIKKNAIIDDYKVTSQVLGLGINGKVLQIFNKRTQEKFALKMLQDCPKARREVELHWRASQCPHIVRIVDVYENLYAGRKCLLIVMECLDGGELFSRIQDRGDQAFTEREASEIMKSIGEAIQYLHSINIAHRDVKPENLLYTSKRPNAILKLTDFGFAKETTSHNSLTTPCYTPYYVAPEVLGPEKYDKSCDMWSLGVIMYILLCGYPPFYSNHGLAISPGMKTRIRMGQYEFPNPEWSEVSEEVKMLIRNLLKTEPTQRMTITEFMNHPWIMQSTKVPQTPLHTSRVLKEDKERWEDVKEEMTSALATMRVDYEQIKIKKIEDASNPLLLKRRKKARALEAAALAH
Mitogen-activated protein kinase 8 (Homo sapiens), sequence (P45983 whole entry): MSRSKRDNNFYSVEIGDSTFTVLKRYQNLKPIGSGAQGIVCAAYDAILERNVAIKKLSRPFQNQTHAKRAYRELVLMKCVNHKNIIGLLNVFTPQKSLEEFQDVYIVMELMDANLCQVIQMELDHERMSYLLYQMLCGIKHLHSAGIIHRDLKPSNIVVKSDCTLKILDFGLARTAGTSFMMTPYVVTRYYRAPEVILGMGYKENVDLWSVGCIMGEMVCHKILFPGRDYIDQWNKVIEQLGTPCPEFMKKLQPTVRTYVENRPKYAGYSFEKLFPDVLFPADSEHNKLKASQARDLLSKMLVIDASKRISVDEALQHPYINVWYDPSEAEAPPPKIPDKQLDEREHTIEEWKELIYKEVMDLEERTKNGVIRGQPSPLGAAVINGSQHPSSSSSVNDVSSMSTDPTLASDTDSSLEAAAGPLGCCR
Casein kinase II subunit alpha (Homo sapiens), sequence (P68400 whole entry, looked up): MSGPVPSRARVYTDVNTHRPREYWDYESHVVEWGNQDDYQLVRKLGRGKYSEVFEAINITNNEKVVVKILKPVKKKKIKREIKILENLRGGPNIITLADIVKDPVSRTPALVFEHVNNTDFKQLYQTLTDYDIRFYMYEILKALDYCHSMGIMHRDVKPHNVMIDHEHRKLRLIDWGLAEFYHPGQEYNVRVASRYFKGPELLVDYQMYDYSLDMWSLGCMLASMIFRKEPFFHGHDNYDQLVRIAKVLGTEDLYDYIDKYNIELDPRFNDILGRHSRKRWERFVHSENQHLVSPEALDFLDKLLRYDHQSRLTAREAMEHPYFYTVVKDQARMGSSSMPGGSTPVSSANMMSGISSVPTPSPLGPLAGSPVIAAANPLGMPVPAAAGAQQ
Casein kinase I isoform alpha (Homo sapiens), sequence (P48729 2-337 limits assumed): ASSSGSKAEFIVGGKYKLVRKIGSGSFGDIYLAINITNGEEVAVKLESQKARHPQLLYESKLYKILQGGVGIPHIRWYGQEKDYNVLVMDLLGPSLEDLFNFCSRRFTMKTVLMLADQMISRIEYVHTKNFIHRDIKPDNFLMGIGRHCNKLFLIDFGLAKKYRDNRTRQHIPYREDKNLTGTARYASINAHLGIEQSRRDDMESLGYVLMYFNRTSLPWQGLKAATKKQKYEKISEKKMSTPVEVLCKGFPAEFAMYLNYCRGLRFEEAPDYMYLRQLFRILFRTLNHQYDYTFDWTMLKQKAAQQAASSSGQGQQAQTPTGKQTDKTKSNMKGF

For `c1ccc(Nc2ncnc3[nH]c(-c4ccccc4)nc23)cc1`, the Activity in test [1] amounted to 96.7%; in test [2] it was 77%; in [3], 5%; in test [4] it was 78.2%; in test [5] it was 63%; in test [6], 32.7%. Also, the Activity in test [7] was found to be 93.3%; in test [8], 110%; in [9], 18.6%; in test [10], 100%; in test [11], 96.2%; in test [12], 59.8%.
